Structures can show the parent of a compound that is named as a salt.
target: T1, full-length USP7 (Homo sapiens, UniProt Q93009); test: Enzymatic assay to determine % inhibition of USP7 activity at 1 μM test compound (Ubiquitin-Rhodamine 110 cleavage); format: biochemical; details: 1 μM of the test compound; given where IC50 has not been determined yet; mean of two repetitions
T1 construct: A 45 μl reaction volume containing full-length USP7 (0.5-1.0 nM)
Description: Enzymatic Assay to Determine % Value of Inhibition […] Activity at 1 μM […]
A 45 μl reaction volume containing full-length USP7 (0.5-1.0 nM) in 50 mM HEPES pH 7.5, 150 mM NaCl, 2 mM DTT, 1 mg/ml BSA and 0.05% Tween20 (DUB assay buffer) was assembled in wells of 96 well half area black flat bottom plates. All test compounds were first dissolved to 30 mM stocks in DMSO and subsequently introduced to enzyme 15 min after USP7 incubation with DTT at room temperature. The final concentration of tested compounds was 1 μM. The enzymatic reaction was started by adding 0.5 μM Ubiquitin-Rhodamine 110 (final concentration) and allowed to proceed for 30-60 min at 25° C., 250 RPM shaking before Rhodamine fluorescence (485 nm excitation/535 nm emission) was measured using Tecan Spark M10 plate reader. Percentage of inhibition at 1 μM was determined by the mean of two repetitions for these concentrations using Microsoft Excel software.

T1 sequence (Q93009 whole entry): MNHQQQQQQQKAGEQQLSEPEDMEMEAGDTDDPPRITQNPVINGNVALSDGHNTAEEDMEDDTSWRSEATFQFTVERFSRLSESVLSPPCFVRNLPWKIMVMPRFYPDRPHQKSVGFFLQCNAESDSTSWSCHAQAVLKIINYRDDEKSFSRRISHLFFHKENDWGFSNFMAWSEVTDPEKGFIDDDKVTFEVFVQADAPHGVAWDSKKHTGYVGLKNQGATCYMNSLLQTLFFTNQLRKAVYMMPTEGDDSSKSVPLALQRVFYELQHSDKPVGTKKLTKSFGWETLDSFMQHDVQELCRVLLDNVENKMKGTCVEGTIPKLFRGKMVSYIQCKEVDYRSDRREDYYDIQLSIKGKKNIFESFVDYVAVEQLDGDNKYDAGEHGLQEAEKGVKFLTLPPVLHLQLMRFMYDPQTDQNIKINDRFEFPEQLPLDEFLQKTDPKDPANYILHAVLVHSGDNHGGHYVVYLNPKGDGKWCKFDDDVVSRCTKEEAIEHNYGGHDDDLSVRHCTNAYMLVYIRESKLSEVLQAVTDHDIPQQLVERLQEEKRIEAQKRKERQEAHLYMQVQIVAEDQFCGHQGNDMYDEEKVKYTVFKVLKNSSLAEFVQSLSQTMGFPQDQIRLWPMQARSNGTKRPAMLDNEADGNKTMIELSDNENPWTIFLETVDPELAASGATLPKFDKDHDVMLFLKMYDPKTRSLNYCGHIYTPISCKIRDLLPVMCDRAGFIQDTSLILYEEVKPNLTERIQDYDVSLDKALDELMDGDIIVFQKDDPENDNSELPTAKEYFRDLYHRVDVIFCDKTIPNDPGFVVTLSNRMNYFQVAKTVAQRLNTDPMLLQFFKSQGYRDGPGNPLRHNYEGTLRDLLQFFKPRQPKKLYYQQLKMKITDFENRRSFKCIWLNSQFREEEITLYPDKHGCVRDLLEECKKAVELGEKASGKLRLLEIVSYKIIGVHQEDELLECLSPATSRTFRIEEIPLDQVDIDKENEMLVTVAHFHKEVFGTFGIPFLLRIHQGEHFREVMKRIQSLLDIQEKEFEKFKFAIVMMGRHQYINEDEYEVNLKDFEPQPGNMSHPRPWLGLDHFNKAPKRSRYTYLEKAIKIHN

First: Cc1c(CN2C(=O)C3C(C2=O)C3(C)C)cn2ncnc(-c3cc(Cl)cc4ccn(CC5(F)CCNCC5)c34)c12 (stereo not shown) [Example 21, 3-((4-(5-chloro-1-((4-fluoropiperidin-4-yl)methyl)-1H-indol-7-yl)-5-methylpyrrolo[2,1-f][1,2,4]triazin-6-yl)methyl)-6,6-dimethyl-3-azabicyclo[3.1.0]hexane-2,4-dione hydrochloride]
Second: CC1(C)C2C(=O)N(Cc3cc4c(-c5cc(Cl)cc6ccn(CC7CNCC(F)(F)C7)c56)ncnn4c3)C(=O)C21 (stereo not shown) [Example 26, 3-((4-(5-chloro-1-((5,5-difluoropiperidin-3-yl)methyl)-1H-indol-7-yl)pyrrolo[2,1-f][1,2,4]triazin-6-yl)methyl)-6,6-dimethyl-3-azabicyclo[3.1.0]hexane-2,4-dione dihydrochloride]
The inhibition at 1 µM of the first is higher: 50 to 70% for the first, 20 to 49% for the second.

`Cc1cc(Cl)cc(-c2ncnn3cc(CN4C(=O)C5C(C4=O)C5(C)C)cc23)c1C(=O)N1C[C@@H](N)[C@@H](C)C1` (stereo partly drawn) [Example 23, 3-((4-(2-((3S,4S)-3-amino-4-methylpyrrolidine-1-carbonyl)-5-chloro-3-methylphenyl)pyrrolo[2,1-f][1,2,4]triazin-6-yl)methyl)-6,6-dimethyl-3-azabicyclo[3.1.0]hexane-2,4-dione 2,2,2-trifluoroacetate] and `Cc1cc(Cl)cc(-c2ncnn3cc(CN4C(=O)C5C(C4=O)C5(C)C)cc23)c1CC1CN[C@H](C)CO1` (stereo partly drawn) [Example 40, 3-((4-(5-chloro-3-methyl-2-(((5R)-5-methylmorpholin-2-yl)methyl)phenyl)pyrrolo[2,1-f][1,2,4]triazin-6-yl)methyl)-6,6-dimethyl-3-azabicyclo[3.1.0]hexane-2,4-dione hydrochloride] fall in the same range of inhibition at 1 µM: 50 to 70% for the first, 50 to 70% for the second.

`Cc1cc(Cl)cc(-c2ncnn3cc(CN4C(=O)C5C(C4=O)C5(C)C)cc23)c1O[C@@H]1CNCC(F)(F)C1` (stereo partly drawn) [Example 28, 3-((4-(5-chloro-2-(((S)-5,5-difluoropiperidin-3-yl)oxy)-3-methylphenyl)pyrrolo[2,1-f][1,2,4]triazin-6-yl)methyl)-6,6-dimethyl-3-azabicyclo[3.1.0]hexane-2,4-dione 2,2,2-trifluoroacetate] and `Cc1cc(Cl)cc(-c2ncnn3cc(CN4C(=O)C5C(C4=O)C5(C)C)cc23)c1CC1CNCC(F)(F)CO1` (stereo not shown) [Example 38, 3-((4-(5-chloro-2-((6,6-difluoro-1,4-oxazepan-2-yl)methyl)-3-methylphenyl)pyrrolo[2,1-f][1,2,4]triazin-6-yl)methyl)-6,6-dimethyl-3-azabicyclo[3.1.0]hexane-2,4-dione hydrochloride] cannot be ordered by inhibition at 1 µM: under 20% for the first, under 20% for the second.

Compared with `CC1(C)C2C(=O)N(Cc3cc4c(-c5cc(F)cc6ccn(C[C@@H]7CNCCO7)c56)ncnn4c3)C(=O)C21` (stereo partly drawn) [Example 33, 3-((4-(5-fluoro-1-(((S)-morpholin-2-yl)methyl)-1H-indol-7-yl)pyrrolo[2,1-f][1,2,4]triazin-6-yl)methyl)-6,6-dimethyl-3-azabicyclo[3.1.0]hexane-2,4-dione 2,2,2-trifluoroacetate], `CC1(C)C2C(=O)N(Cc3cc4c(-c5cc(C(=O)O)cc6ccn(C[C@@H]7CNCCO7)c56)ncnn4c3)C(=O)C21` (stereo partly drawn) [Example 47, 7-(6-((6,6-dimethyl-2,4-dioxo-3-azabicyclo[3.1.0]hexan-3-yl)methyl)pyrrolo[2,1-f][1,2,4]triazin-4-yl)-1-(((S)-morpholin-2-yl)methyl)-1H-indole-5-carboxylic acid hydrochloride] is lower in inhibition at 1 µM: over 70% for the first, under 20% for the second.

First: COC(=O)c1cc(-c2ncnn3cc(CN4C(=O)C5C(C4=O)C5(C)C)cc23)c2c(ccn2C[C@@H]2CNCCO2)c1 (stereo partly drawn) [Example 34, methyl 7-(6-((6,6-dimethyl-2,4-dioxo-3-azabicyclo[3.1.0]hexan-3-yl)methyl)pyrrolo[2,1-f][1,2,4]triazin-4-yl)-1-(((S)-morpholin-2-yl)methyl)-1H-indole-5-carboxylate 2,2,2-trifluoroacetate]
Second: CC1(C)NC(=O)N(Cc2cc3c(-c4cc(Cl)cc5ccn(C[C@@H]6CNCCO6)c45)ncnn3c2)C1=O [Example 36, (S)-3-((4-(5-chloro-1-(morpholin-2-ylmethyl)-1H-indol-7-yl)pyrrolo[2,1-f][1,2,4]triazin-6-yl)methyl)-5,5-dimethylimidazolidine-2,4-dione hydrochloride]
The inhibition at 1 µM of the first is lower: under 20% for the first, 50 to 70% for the second.

First: Cc1cc(Cl)cc(-c2ncnn3cc(CN4C(=O)C5C(C4=O)C5(C)C)cc23)c1CC1CNCC(CF)O1 (stereo not shown) [Example 42, 3-((4-(5-chloro-2-((6-(fluoromethyl)morpholin-2-yl)methyl)-3-methylphenyl)pyrrolo[2,1-f][1,2,4]triazin-6-yl)methyl)-6,6-dimethyl-3-azabicyclo[3.1.0]hexane-2,4-dione hydrochloride]
Second: Cc1cc(Cl)cc(-c2ncnn3cc(CN4C(=O)C5C(C4=O)C5(C)C)cc23)c1CC1CNC2(CC2)CO1 (stereo not shown) [Example 71, 3-((4-(2-((7-oxa-4-azaspiro[2.5]octan-6-yl)methyl)-5-chloro-3-methylphenyl)pyrrolo[2,1-f][1,2,4]triazin-6-yl)methyl)-6,6-dimethyl-3-azabicyclo[3.1.0]hexane-2,4-dione 2,2,2-trifluoroacetate]
The inhibition at 1 µM of the first is higher: 50 to 70% for the first, 20 to 49% for the second.

`Cc1cc(Cl)cc(-c2ncnn3cc(CN4C(=O)C5C(C4=O)C5(C)C)cc23)c1OC[C@H]1CNCCO1` (stereo partly drawn) [Example 52, 3-((4-(5-chloro-3-methyl-2-(((R)-morpholin-2-yl)methoxy)phenyl)pyrrolo[2,1-f][1,2,4]triazin-6-yl)methyl)-6,6-dimethyl-3-azabicyclo[3.1.0]hexane-2,4-dione hydrochloride] and `Cc1cc(Cl)cc(-c2ncnn3cc(CN4C(=O)C5C(C4=O)C5(C)C)cc23)c1OC[C@@H]1CCCNC1` (stereo partly drawn) [Example 53, 3-((4-(5-chloro-3-methyl-2-(((R)-piperidin-3-yl)methoxy)phenyl)pyrrolo[2,1-f][1,2,4]triazin-6-yl)methyl)-6,6-dimethyl-3-azabicyclo[3.1.0]hexane-2,4-dione hydrochloride] fall in the same range of inhibition at 1 µM: 20 to 49% for the first, 20 to 49% for the second.

`CC1(C)C2C(=O)N(Cc3cc4c(-c5cc(Cl)cc6c5N(C5CCNCC5)CCC6)ncnn4c3)C(=O)C21` (stereo not shown) [Example 54, 3-((4-(6-chloro-1-(piperidin-4-yl)-1,2,3,4-tetrahydroquinolin-8-yl)pyrrolo[2,1-f][1,2,4]triazin-6-yl)methyl)-6,6-dimethyl-3-azabicyclo[3.1.0]hexane-2,4-dione hydrochloride] and `CC1(C)C2C(=O)N(Cc3cc4c(-c5cc(Cl)cc6c5N(C5CNC5)CCC6)ncnn4c3)C(=O)C21` (stereo not shown) [Example 69, 3-((4-(1-(azetidin-3-yl)-6-chloro-1,2,3,4-tetrahydroquinolin-8-yl)pyrrolo[2,1-f][1,2,4]triazin-6-yl)methyl)-6,6-dimethyl-3-azabicyclo[3.1.0]hexane-2,4-dione hydrochloride] cannot be ordered by inhibition at 1 µM: over 70% for the first, over 70% for the second.

First: O=c1ccn(CC(F)(F)F)c(=O)n1Cc1cc2c(-c3cc(Cl)cc4c3N(C3CCNC3)CCC4)ncnn2c1 (stereo not shown) [Example 64, 3-((4-(6-chloro-1-(pyrrolidin-3-yl)-1,2,3,4-tetrahydroquinolin-8-yl)pyrrolo[2,1-f][1,2,4]triazin-6-yl)methyl)-1-(2,2,2-trifluoroethyl)pyrimidine-2,4(1H,3H)-dione hydrochloride]
Second: CC1(C)C2C(=O)N(Cc3cc4c(-c5cc(Cl)cc6c5N(C[C@@H]5CNCCO5)CCC6)ncnn4c3)C(=O)C21 (stereo partly drawn) [Example 65, 3-((4-(6-chloro-1-(((S)-morpholin-2-yl)methyl)-1,2,3,4-tetrahydroquinolin-8-yl)pyrrolo[2,1-f][1,2,4]triazin-6-yl)methyl)-6,6-dimethyl-3-azabicyclo[3.1.0]hexane-2,4-dione hydrochloride]
The inhibition at 1 µM of the first is higher: over 70% for the first, 20 to 49% for the second.

Compared with `Cc1cc(Cl)cc(-c2ncnn3cc(CN4C(=O)C5C(C4=O)C5(C)C)cc23)c1CC1(C)CNCC(C)(C)O1` (stereo not shown) [Example 72, 3-((4-(5-chloro-3-methyl-2-((2,6,6-trimethylmorpholin-2-yl)methyl)phenyl)pyrrolo[2,1-f][1,2,4]triazin-6-yl)methyl)-6,6-dimethyl-3-azabicyclo[3.1.0]hexane-2,4-dione hydrochloride], `Cc1cc(Cl)cc(-c2ncnn3cc(CN4C(=O)C5C(C4=O)C5(C)C)cc23)c1NC[C@@H]1CNCCO1` (stereo partly drawn) [Example 81, 3-((4-(5-chloro-3-methyl-2-((((S)-morpholin-2-yl)methyl)amino)phenyl)pyrrolo[2,1-f][1,2,4]triazin-6-yl)methyl)-6,6-dimethyl-3-azabicyclo[3.1.0]hexane-2,4-dione dihydrochloride] is lower in inhibition at 1 µM: over 70% for the first, 20 to 49% for the second.

First: Cc1cc(Cl)cc(-c2ncnn3cc(CN4C(=O)C5C(C4=O)C5(C)C)cc23)c1NCC1CCNCC1 (stereo not shown) [Example 73, 3-((4-(5-chloro-3-methyl-2-((piperidin-4-ylmethyl)amino)phenyl)pyrrolo[2,1-f][1,2,4]triazin-6-yl)methyl)-6,6-dimethyl-3-azabicyclo[3.1.0]hexane-2,4-dione dihydrochloride]
Second: Cc1cc(Cl)cc(-c2ncnn3cc(CN4C(=O)C5C(C4=O)C5(C)C)cc23)c1NCC1CCCNC1 (stereo not shown) [Example 79, 3-((4-(5-chloro-3-methyl-2-((piperidin-3-ylmethyl)amino)phenyl)pyrrolo[2,1-f][1,2,4]triazin-6-yl)methyl)-6,6-dimethyl-3-azabicyclo[3.1.0]hexane-2,4-dione dihydrochloride]
The inhibition at 1 µM of the first is higher: over 70% for the first, 50 to 70% for the second.

Source: patent US20240150362A1, “Substituted Pyrrolotriazines” (Molecure S.A., priority 2022, published 2024)
